Assay results reported in patent US20260070945A1, “MACROCYCLIC IMMUNOMODULATORS” (Bristol-Myers Squibb Company, priority 2022, published 2026).
Where a SMILES comes first, the peptide text is derived from it. Bridges are numbered along the chain shown (N, C = ends). [ ]: non-standard residue; d: D form. The star is where a group is joined. ξ: configuration not given here. Bip = N[C@@H](Cc1ccc(-c2ccccc2)cc1)C(=O)O; Phe(3-Me) = Cc1cccc(C[C@H](N)C(=O)O)c1; NMeE = CN[C@@H](CCC(=O)O)C(=O)O; NMeQ = CN[C@@H](CCC(N)=O)C(=O)O; Cha = N[C@@H](CC1CCCCC1)C(=O)O; Cit = NC(=O)NCCC[C@H](N)C(=O)O; Thr(3ξ) = CC(O)[C@H](N)C(=O)O; Carboxymethyl = O=C(O)C*; NMeA = CN[C@@H](C)C(=O)O; Aun = NCCCCCCCCCCC(=O)O; Dab = NCC[C@H](N)C(=O)O; AEEA = NCCOCCOCC(=O)O; Sar = CNCC(=O)O

What follows are compounds tested against T1, PD-1/PD-L1 interaction (PE-labeled human PD-L1-Ig binding to Jurkat cell line over-expressing human PD-1) (Homo sapiens, UniProt Q15116) (assay: Jurkat-PD-1 Cell Binding High-Content Screening Assay (CBA)). Conditions: Jurkat-hPD-1 cells, PE-labeled PD-L1-Ig 20 nM final; read-out: Jurkat HPD1 PDL1 IC50.
T1 construct: expressed in transfected cells; host or cells: Jurkat
Outline: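 Compound is added first to the PD-1-expressing Jurkat cells and held 2 h at 37 °C in serum-containing DMEM. The fluorescent PD-L1 fusion follows at 20 nM final for 1 h. Fixed, Hoechst-stained cells are then imaged for bound label.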

T1 sequence (Q15116 25-288): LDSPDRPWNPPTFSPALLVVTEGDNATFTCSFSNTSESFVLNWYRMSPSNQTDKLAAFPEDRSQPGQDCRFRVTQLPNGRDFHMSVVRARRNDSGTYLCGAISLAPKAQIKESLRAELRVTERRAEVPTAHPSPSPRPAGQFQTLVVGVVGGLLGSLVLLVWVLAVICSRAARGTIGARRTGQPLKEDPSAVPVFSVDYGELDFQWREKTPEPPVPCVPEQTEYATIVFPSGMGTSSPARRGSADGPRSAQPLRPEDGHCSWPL

Row | IC50 [nM] | SMILES
1 | 63.1 | Cc1cccc(C[C@@H]2NC(=O)[C@H](CC(=O)O)NC(=O)[C@H](Cc3ccc(OCC(=O)O)cc3)NC(=O)[C@H](Cc3ccc(OCC(=O)O)cc3)NC(=O)CSC[C@@H](C(=O)NCCCCCCCCCCC(=O)O)NC(=O)[C@H](CCC(=O)O)NC(=O)[C@H](C(C)C)NC(=O)[C@H](CC3CCCCC3)NC(=O)[C@H](CCN)NC(=O)[C@@H](CC(C)C)NC(=O)[C@H](CCC(N)=O)N(C)C(=O)[C@H](Cc3ccc(O)cc3)NC(=O)[C@H](Cc3ccc(-c4ccccc4)cc3)NC(=O)[C@H](Cc3ccc(O)cc3)NC2=O)c1 [Example 2255] ({CH2CO}-Y(Carboxymethyl)Y(Carboxymethyl)D[Phe(3-Me)]Y[Bip]Y[NMeQ][dL][Dab][Cha]VEC[Aun]-OH; thioether N-14)
2 | 98.8 | Cc1cccc(C[C@@H]2NC(=O)[C@H](CC(=O)O)NC(=O)[C@H](Cc3ccc(OCC(=O)O)cc3)NC(=O)[C@H](Cc3ccc(OCC(=O)O)cc3)NC(=O)CSC[C@@H](C(=O)NCCCCCCCCCCC(=O)O)NC(=O)[C@H](CCC(=O)O)NC(=O)[C@H](C(C)C)NC(=O)[C@H](CC3CCCCC3)NC(=O)[C@H](CCN)NC(=O)[C@@H](CC(C)C)NC(=O)[C@H](CCC(=O)O)N(C)C(=O)[C@H](Cc3ccc(O)cc3)NC(=O)[C@H](Cc3ccc(-c4ccccc4)cc3)NC(=O)[C@H](Cc3ccc(O)cc3)NC2=O)c1 [Example 2256] ({CH2CO}-Y(Carboxymethyl)Y(Carboxymethyl)D[Phe(3-Me)]Y[Bip]Y[NMeE][dL][Dab][Cha]VEC[Aun]-OH; thioether N-14)
3 | 199 | Cc1cccc(C[C@@H]2NC(=O)[C@H](CC(=O)O)NC(=O)[C@H](Cc3cnc[nH]3)NC(=O)[C@H](Cc3ccc(OCC(=O)O)cc3)NC(=O)CSC[C@@H](C(=O)NCCCCCCCCCCC(=O)O)NC(=O)[C@H](CCCNC(N)=O)NC(=O)[C@H](C(C)C)NC(=O)[C@H](CC3CCCCC3)NC(=O)[C@H](CCN)NC(=O)[C@@H](CC(C)C)NC(=O)[C@H](C)N(C)C(=O)[C@H](Cc3ccc(O)cc3)NC(=O)[C@H](Cc3ccc(-c4ccccc4)cc3)NC(=O)[C@H](CCC(N)=O)NC2=O)c1 [Example 2257] ({CH2CO}-Y(Carboxymethyl)HD[Phe(3-Me)]Q[Bip]Y[NMeA][dL][Dab][Cha]V[Cit]C[Aun]-OH; thioether N-14)
4 | 765 | Cc1cccc(C[C@@H]2NC(=O)[C@H](CC(=O)O)NC(=O)[C@H](Cc3cnc[nH]3)NC(=O)[C@H](Cc3ccc(OCC(=O)O)cc3)NC(=O)CSC[C@@H](C(=O)NCCCCCCCCCCC(=O)O)NC(=O)[C@H](CCC(=O)O)NC(=O)[C@H](C(C)C)NC(=O)[C@H](CC3CCCCC3)NC(=O)[C@H](CCN)NC(=O)[C@@H](CC(C)C)NC(=O)[C@H](C)N(C)C(=O)[C@H](Cc3ccc(O)cc3)NC(=O)[C@H](Cc3ccc(-c4ccccc4)cc3)NC(=O)[C@H](CCC(N)=O)NC2=O)c1 [Example 2258] ({CH2CO}-Y(Carboxymethyl)HD[Phe(3-Me)]Q[Bip]Y[NMeA][dL][Dab][Cha]VEC[Aun]-OH; thioether N-14)
5 | 11.4 | Cc1cccc(C[C@@H]2NC(=O)[C@H](CC(=O)O)NC(=O)[C@H](Cc3ccc(OCC(=O)O)cc3)NC(=O)[C@H](C(C)O)NC(=O)CSC[C@@H](C(=O)N(C)CC(=O)NCCCCCCCCCCC(=O)O)NC(=O)[C@H](CCCNC(N)=O)NC(=O)[C@H](C(C)C)NC(=O)[C@H](CC3CCCCC3)NC(=O)[C@H](CCN)NC(=O)[C@@H](CC(C)C)NC(=O)[C@H](C)N(C)C(=O)[C@H](C(C)C)NC(=O)[C@H](Cc3ccc(-c4ccccc4)cc3)NC(=O)[C@H](C(C)C)NC2=O)c1 (stereo partly drawn) [Example 2259] ({CH2CO}-[Thr(3ξ)]Y(Carboxymethyl)D[Phe(3-Me)]V[Bip]V[NMeA][dL][Dab][Cha]V[Cit]C[Sar][Aun]-OH; thioether N-14)
6 | 28.5 | Cc1cccc(C[C@@H]2NC(=O)[C@H](CC(=O)O)NC(=O)[C@H](Cc3ccc(OCC(=O)O)cc3)NC(=O)[C@H](CCCNC(=N)N)NC(=O)CSC[C@@H](C(=O)N(C)CC(=O)NCCCCCCCCCCC(=O)O)NC(=O)[C@H](CCCNC(N)=O)NC(=O)[C@H](C(C)C)NC(=O)[C@H](CC3CCCCC3)NC(=O)[C@H](CCN)NC(=O)[C@@H](CC(C)C)NC(=O)[C@H](C)N(C)C(=O)[C@H](C(C)C)NC(=O)[C@H](Cc3ccc(-c4ccccc4)cc3)NC(=O)[C@H](C(C)C)NC2=O)c1 [Example 2260] ({CH2CO}-RY(Carboxymethyl)D[Phe(3-Me)]V[Bip]V[NMeA][dL][Dab][Cha]V[Cit]C[Sar][Aun]-OH; thioether N-14)
7 | 25.8 | Cc1cccc(C[C@@H]2NC(=O)[C@H](CC(=O)O)NC(=O)[C@H](Cc3ccc(OCC(=O)O)cc3)NC(=O)[C@H](CC(N)=O)NC(=O)CSC[C@@H](C(=O)N(C)CC(=O)NCCCCCCCCCCC(=O)O)NC(=O)[C@H](CCCNC(N)=O)NC(=O)[C@H](C(C)C)NC(=O)[C@H](CC3CCCCC3)NC(=O)[C@H](CCN)NC(=O)[C@@H](CC(C)C)NC(=O)[C@H](C)N(C)C(=O)[C@H](C(C)C)NC(=O)[C@H](Cc3ccc(-c4ccccc4)cc3)NC(=O)[C@H](C(C)C)NC2=O)c1 [Example 2261] ({CH2CO}-NY(Carboxymethyl)D[Phe(3-Me)]V[Bip]V[NMeA][dL][Dab][Cha]V[Cit]C[Sar][Aun]-OH; thioether N-14)
8 | 154 | Cc1cccc(C[C@@H]2NC(=O)[C@H](CC(=O)O)NC(=O)[C@H](Cc3ccc(OCC(=O)O)cc3)NC(=O)[C@H](C(C)O)NC(=O)CSC[C@@H](C(=O)N(C)CC(=O)NCCCCCCCCCCC(=O)O)NC(=O)[C@H](C(C)O)NC(=O)[C@H](C(C)C)NC(=O)[C@H](CC3CCCCC3)NC(=O)[C@H](CCN)NC(=O)[C@@H](CC(C)C)NC(=O)[C@H](C)N(C)C(=O)[C@H](C(C)C)NC(=O)[C@H](Cc3ccc(-c4ccccc4)cc3)NC(=O)[C@H](Cc3ccc(O)cc3)NC2=O)c1 (stereo partly drawn) [Example 2262] ({CH2CO}-[Thr(3ξ)]Y(Carboxymethyl)D[Phe(3-Me)]Y[Bip]V[NMeA][dL][Dab][Cha]V[Thr(3ξ)]C[Sar][Aun]-OH; thioether N-14)
9 | 334 | Cc1cccc(C[C@@H]2NC(=O)[C@H](CC(=O)O)NC(=O)[C@H](Cc3ccc(OCC(=O)O)cc3)NC(=O)[C@H](C(C)O)NC(=O)CSC[C@@H](C(=O)N(C)CC(=O)NCCCCCCCCCCC(=O)O)NC(=O)[C@H](CCC(=O)O)NC(=O)[C@H](C(C)C)NC(=O)[C@H](CC3CCCCC3)NC(=O)[C@H](CCN)NC(=O)[C@@H](CC(C)C)NC(=O)[C@H](C)N(C)C(=O)[C@H](C(C)C)NC(=O)[C@H](Cc3ccc(-c4ccccc4)cc3)NC(=O)[C@H](Cc3ccc(O)cc3)NC2=O)c1 (stereo partly drawn) [Example 2263] ({CH2CO}-[Thr(3ξ)]Y(Carboxymethyl)D[Phe(3-Me)]Y[Bip]V[NMeA][dL][Dab][Cha]VEC[Sar][Aun]-OH; thioether N-14)
10 | 427 | Cc1cccc(C[C@@H]2NC(=O)[C@H](CC(=O)O)NC(=O)[C@H](Cc3ccc(OCC(=O)O)cc3)NC(=O)[C@H](C(C)O)NC(=O)CSC[C@@H](C(=O)N(C)CC(=O)NCCCCCCCCCCC(=O)O)NC(=O)[C@H](CCC(N)=O)NC(=O)[C@H](C(C)C)NC(=O)[C@H](CC3CCCCC3)NC(=O)[C@H](CCN)NC(=O)[C@@H](CC(C)C)NC(=O)[C@H](C)N(C)C(=O)[C@H](C(C)C)NC(=O)[C@H](Cc3ccc(-c4ccccc4)cc3)NC(=O)[C@H](Cc3ccc(O)cc3)NC2=O)c1 (stereo partly drawn) [Example 2265] ({CH2CO}-[Thr(3ξ)]Y(Carboxymethyl)D[Phe(3-Me)]Y[Bip]V[NMeA][dL][Dab][Cha]VQC[Sar][Aun]-OH; thioether N-14)
11 | 334 | Cc1cccc(C[C@@H]2NC(=O)[C@H](CC(=O)O)NC(=O)[C@H](Cc3ccc(OCC(=O)O)cc3)NC(=O)[C@H](CC(N)=O)NC(=O)CSC[C@@H](C(=O)N(C)CC(=O)NCCCCCCCCCCC(=O)O)NC(=O)[C@H](CCC(=O)O)NC(=O)[C@H](C(C)C)NC(=O)[C@H](CC3CCCCC3)NC(=O)[C@H](CCN)NC(=O)[C@@H](CC(C)C)NC(=O)[C@H](C)N(C)C(=O)[C@H](C(C)C)NC(=O)[C@H](Cc3ccc(-c4ccccc4)cc3)NC(=O)[C@H](Cc3ccc(O)cc3)NC2=O)c1 [Example 2266] ({CH2CO}-NY(Carboxymethyl)D[Phe(3-Me)]Y[Bip]V[NMeA][dL][Dab][Cha]VEC[Sar][Aun]-OH; thioether N-14)
12 | 11.9 | Cc1cccc(C[C@@H]2NC(=O)[C@H](CC(=O)O)NC(=O)[C@H](Cc3ccc(OCC(=O)O)cc3)NC(=O)[C@H](CCCNC(=N)N)NC(=O)CSC[C@@H](C(=O)N[C@@H](CCN)C(=O)NCCCCCCCCCCC(=O)O)NC(=O)[C@H](CCC(N)=O)NC(=O)[C@H](C(C)C)NC(=O)[C@H](CC3CCCCC3)NC(=O)[C@H](CCN)NC(=O)[C@@H](CC(C)C)NC(=O)[C@H](C)N(C)C(=O)[C@H](Cc3ccc(O)cc3)NC(=O)[C@H](Cc3ccc(-c4ccccc4)cc3)NC(=O)[C@H](C(C)C)NC2=O)c1 [Example 2269] ({CH2CO}-RY(Carboxymethyl)D[Phe(3-Me)]V[Bip]Y[NMeA][dL][Dab][Cha]VQC[Dab][Aun]-OH; thioether N-14)
13 | 802 | Cc1cccc(C[C@@H]2NC(=O)[C@H](CC(=O)O)NC(=O)[C@H](Cc3ccc(OCC(=O)O)cc3)NC(=O)[C@H](C(C)O)NC(=O)CSC[C@@H](C(=O)N(C)CC(=O)NCCOCCOCC(=O)NCCCCCCCCCCC(=O)O)NC(=O)[C@H](CCC(=O)O)NC(=O)[C@H](C(C)C)NC(=O)[C@H](CC3CCCCC3)NC(=O)[C@H](CCN)NC(=O)[C@@H](CC(C)C)NC(=O)[C@H](C)N(C)C(=O)[C@H](Cc3ccc(O)cc3)NC(=O)[C@H](Cc3ccc(-c4ccccc4)cc3)NC(=O)[C@H](C(C)C)NC2=O)c1 (stereo partly drawn) [Example 2270] ({CH2CO}-[Thr(3ξ)]Y(Carboxymethyl)D[Phe(3-Me)]V[Bip]Y[NMeA][dL][Dab][Cha]VEC[Sar][AEEA][Aun]-OH; thioether N-14)
